Reference: patent EP3088535A1 (priority 2015, dated 2016)

How the values were obtained:
[1] = biological target: Reverse Transcriptase from Patient #B infected by HIV-1 (Human immunodeficiency virus type 1, UniProt P04585)
Procedure: (§1) Transformed cells (that grew in TRP lacking media) were incubated for 16h with shacking in 13 mL rich medium (Yeast extract Peptone Dextrose) at a final cell density 0,06 OD / mL.
(§2) 13 mL cell culture supernatant was collected after centrifugation at 1500 rpm for 5min and kept as the source for in vitro Reverse Transcriptase resistance analysis.
(§3) HIV Reverse Transcriptase resistance to reverse transcriptase inhibitors was analyzed as follows.
(§4) In a final volume of 150µl, 120µl of transformed cell's medium were incubated in 56 mM Tris-HCl, 56 mM KCl and 9 mM MgCl2 with: • 1.76µg of MS2 RNA (SEQ ID NO: 20), and • 0.059 pmoles of 5'biotinylated primer of SEQ ID NO: 19, and • dNTP mixture (1.5pmoles of each one; dATP, dGTP, dCTP, and dTTP), and • 0.19 pmoles of DIG (digoxigenin) modified dUTP, and • 30 µl of one of each concentration out of eight serial one to one dilutions of Reverse Transcriptase inhibitors in water (in this way the inhibitor was further diluted […]).
(§5) The Reverse Transcriptase inhibitor's one to one dilution started at the following concentrations:
(§6) The mixture reaction was incubated at 37°C for an overnight period (16 - 20 hours).
(§7) At the end of the incubation, each reaction mixture was transferred to a streptavidin coated flat bottom well for ELISA based RNA retro-transcribed DNA determination.
(§8) Wells were washed three times with 200µl of wash buffer (0.1%BSA and 0.05% Tween in PBS) before 30min incubation at room temperature with 100µl of a 1:1000 dilution of Peroxidase -conjugated monoclonal mouse anti-DIG (from Jackson Immunosearch ref N°JIR 200-032-156) in wash buffer.

[2] = biological target: Reverse Transcriptase from Patient #A infected by HIV-1 (Human immunodeficiency virus type 1, UniProt P04585)
Procedure: as §1, §2, §3, §4, §5, §6, §7, §8

[3] = biological target: Reverse Transcriptase from Patient #C infected by HIV-1 (Human immunodeficiency virus type 1, UniProt P04585)
Procedure: as §1, §2, §3, §4, §5, §6, §7, §8

Measured: sensitivity of RT to inhibitor compared with the reference isolate HIV-1 IIIB

Cc1ccnc2c1NC(=O)c1cccnc1N2C1CC1 [NVP, nevirapine]
more sensitive: all assays above
